Measured values reported in ChEMBL document CHEMBL1201862, “PubChem BioAssay data set” (2004).
Calls of active or inactive are those of the source.

Legend:
[1] = molecular target: T1, Ubiquitin-conjugating enzyme E2 N (Homo sapiens, UniProt P61088); assay type: functional;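 also: Dose-response confirmation in a TR-FRET assay detecting UBC13-driven polyubiquitin chain formation, inhibition measured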
T1 sequence (P61088 whole entry): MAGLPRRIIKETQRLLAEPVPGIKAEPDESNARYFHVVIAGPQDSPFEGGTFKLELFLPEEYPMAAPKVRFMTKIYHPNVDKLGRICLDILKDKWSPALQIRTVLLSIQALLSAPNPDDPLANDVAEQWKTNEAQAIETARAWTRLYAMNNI

[2] = A549 cell cytotoxicity, dose response, cytotoxicity control, plate reader, cherry-pick, antagonist series (AID 743412); assay type: functional, cell-based
[3] = LGR2 antagonists, dose response, cell-based, HEK293, CRE-luciferase reporter, cherry pick, set 2 (AID 743343); assay type: functional;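 also: transfected cells were stimulated with diluted bursicon conditioned medium after compound addition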
[4] = HepG2 cell cytotoxicity, dose response, cytotoxicity control, plate reader, cherry-pick, antagonist series (AID 743416); assay type: functional, cell-based
[5] = HEK293 cell cytotoxicity, dose response, cytotoxicity control, plate reader, cherry-picked samples (AID 743446); assay type: functional, cell-based
[6] = molecular target: T2, Apoptotic protease-activating factor 1 (Homo sapiens, UniProt O14727); assay type: functional
T2 sequence (O14727 whole entry): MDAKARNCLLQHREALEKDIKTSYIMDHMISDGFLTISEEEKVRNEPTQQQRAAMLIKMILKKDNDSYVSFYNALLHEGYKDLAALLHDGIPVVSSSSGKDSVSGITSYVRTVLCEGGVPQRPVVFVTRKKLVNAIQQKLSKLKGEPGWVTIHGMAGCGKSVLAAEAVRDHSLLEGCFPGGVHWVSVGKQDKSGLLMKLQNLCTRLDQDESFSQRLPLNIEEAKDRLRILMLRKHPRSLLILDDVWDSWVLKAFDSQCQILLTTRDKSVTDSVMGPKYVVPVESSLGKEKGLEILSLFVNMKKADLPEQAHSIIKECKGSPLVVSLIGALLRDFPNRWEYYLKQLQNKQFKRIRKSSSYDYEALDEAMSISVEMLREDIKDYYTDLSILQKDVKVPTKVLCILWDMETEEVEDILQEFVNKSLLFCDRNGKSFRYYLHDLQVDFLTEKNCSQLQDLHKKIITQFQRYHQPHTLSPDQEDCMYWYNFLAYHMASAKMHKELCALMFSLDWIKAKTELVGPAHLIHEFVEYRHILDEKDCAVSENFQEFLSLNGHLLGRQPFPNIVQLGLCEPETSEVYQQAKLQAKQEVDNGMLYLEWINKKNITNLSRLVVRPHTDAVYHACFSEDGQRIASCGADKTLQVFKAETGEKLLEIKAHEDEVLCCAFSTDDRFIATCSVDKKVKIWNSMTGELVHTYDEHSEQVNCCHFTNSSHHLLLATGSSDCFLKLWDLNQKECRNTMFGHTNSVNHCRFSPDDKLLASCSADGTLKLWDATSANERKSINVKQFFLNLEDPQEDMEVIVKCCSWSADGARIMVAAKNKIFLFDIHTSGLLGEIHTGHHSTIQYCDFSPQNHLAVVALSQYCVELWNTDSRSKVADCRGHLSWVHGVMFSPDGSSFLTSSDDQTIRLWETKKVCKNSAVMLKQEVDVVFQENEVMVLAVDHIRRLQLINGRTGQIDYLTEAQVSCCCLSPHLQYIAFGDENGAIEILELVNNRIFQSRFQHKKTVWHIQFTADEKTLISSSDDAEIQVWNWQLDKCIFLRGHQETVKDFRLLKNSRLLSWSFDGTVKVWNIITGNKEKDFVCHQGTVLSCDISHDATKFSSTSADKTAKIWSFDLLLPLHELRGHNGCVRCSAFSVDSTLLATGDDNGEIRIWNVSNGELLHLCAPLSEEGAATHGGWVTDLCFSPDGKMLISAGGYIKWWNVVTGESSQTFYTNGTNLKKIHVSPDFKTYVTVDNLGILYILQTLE

Vero = experiment: cells; assay type: functional; conditions: Chlorocebus sabaeus
[7] = inhibitors of HIV Env-driven cell fusion, dose response, cherry-pick (AID 652057); assay type: functional, cell-based
[8] = ZM109 Env clade C HIV-1 fusion inhibitors, dose response, HeLa effector, CEM target cells, luciferase, cherry-pick (AID 652058); assay type: functional, cell-based
[9] = inhibitors of clade B AD8 Env fusion, dose response, cell-based, cherry-pick (AID 652062); assay type: functional;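 also: luciferase signal from cell-cell fusion driven by HIV-1 clade B AD8 Env; potency is for inhibitors of fusion seen as a drop in luminescence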
[10] = off-target signal loss in HeLa-CEM21 co-culture – HeLa F-luc CTL cells, cherry-picked, counter-screen for HIV-1 Env fusion inhibitor project, dose response (AID 652040); assay type: functional, cell-based;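 also: potency for signal decrease marking cytotoxic or nonspecific inhibition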
[11] = molecular target: T3, High affinity choline transporter 1 (Homo sapiens, UniProt Q9GZV3); experiment: CHT inhibitors, dose response, cell-based, 5-point CRC, membrane potential dye (AID 504840); assay type: functional
T3 sequence (Q9GZV3 whole entry): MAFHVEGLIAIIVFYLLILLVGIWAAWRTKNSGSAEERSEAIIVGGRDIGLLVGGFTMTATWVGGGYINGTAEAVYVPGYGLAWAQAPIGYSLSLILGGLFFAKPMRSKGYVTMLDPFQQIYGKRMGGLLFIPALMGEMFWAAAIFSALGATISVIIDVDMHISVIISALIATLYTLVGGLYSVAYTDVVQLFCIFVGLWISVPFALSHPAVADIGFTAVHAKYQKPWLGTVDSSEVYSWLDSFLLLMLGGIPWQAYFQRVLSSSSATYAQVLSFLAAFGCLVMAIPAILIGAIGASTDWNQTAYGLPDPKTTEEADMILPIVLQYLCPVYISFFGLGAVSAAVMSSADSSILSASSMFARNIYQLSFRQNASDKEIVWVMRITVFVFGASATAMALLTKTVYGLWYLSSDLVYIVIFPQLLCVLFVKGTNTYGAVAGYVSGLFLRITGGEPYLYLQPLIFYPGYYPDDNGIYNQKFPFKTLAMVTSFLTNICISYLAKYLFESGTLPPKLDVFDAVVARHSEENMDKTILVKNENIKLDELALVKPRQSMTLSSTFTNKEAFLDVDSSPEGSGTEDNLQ

[12] = THP-1 cell cytotoxicity, dose response, cytotoxicity control for Vif-APOBEC3G degradation inhibitor project, THP-1 cells (AID 1117359); assay type: functional; conditions: Human immunodeficiency virus 1, THP-1
[13] = microbe, parasite or virus in culture; assay type: functional; conditions: Mycobacterium tuberculosis
[14] = Shn3 3'UTR reporter inhibitors, dose response, cell-based, Clone20 osteoblasts, firefly luciferase, cherry-picked (AID 624132); assay type: functional;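 also: firefly luciferase luminescence from reporter carrying the Shn3 3'UTR in osteoblasts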
[15] = HepG2 cell cytotoxicity, dose response, cytotoxicity control for Shn3 inhibitor project, CellTiter-Glo, cherry-picked (AID 624134); assay type: functional, cell-based
[16] = A Cell Based Secondary Assay To Explore Cytotoxicity of Compounds that Sensitize Mycobacterium Tuberculosis to Beta-Lactam Antibiotics.; assay type: functional
[17] = control 3'UTR Renilla luciferase suppression, dose response, counter-screen for Shn3 inhibitor project, cell-based, Clone20-Shn3RL, cherry-picked (AID 624133); assay type: functional

SMILES: CCOc1cc(/C=C/C(=O)Nc2ccc(C(=O)NCCN(CC)CC)cc2)ccc1OCC(C)C
- IC50 [1]: > 20 µM (inactive)
- AC50 [2]: 7.77 µM (active)
- AC50 [3]: 35 µM (active)
- AC50 [4]: 7.47 µM (active)
- AC50 [5]: 7.83 µM (active)
- IC50 [6]: 28.5 µM (active)

SMILES: O=C(/C=C/c1ccccc1)c1ccc2ccccc2c1
- CC50 (Vero): > 25 µM (active)

SMILES: Cc1ccc(S(=O)(=O)N(C)C[C@@H]2Oc3ccc(NC(=O)C4CCCCC4)cc3CC(=O)N([C@@H](C)CO)C[C@@H]2C)cc1
- AC50 [7]: 3.75 µM (active)
- AC50 [8]: 2 µM (active)
- AC50 [9]: 12.2 µM (active)

SMILES: CN(Cc1cccs1)c1ncnc2sccc12
- AC50 [10]: 56.6 µM (active)
- IC50 [11]: 4.57 µM (active)
- AC50 [8]: 1.3 µM (active)
- AC50 [9]: 16.9 µM (active)

SMILES: CCc1nc2cc(Cc3ccc4[nH]c(CC)nc4c3)ccc2[nH]1
- CC50 [12]: 15.5 µM (active)

SMILES: C=CCOc1ccc2c(c1)C(=NO)c1cc(OCC=C)ccc1-2
- CC50 [12]: > 40 µM (active)
- CC50 [13]: > 40 µM (active)

SMILES: CC(C)CC(=O)NC(=S)Nc1ccc(N2CCN(C(=O)c3cccs3)CC2)cc1
- AC50 [14]: 2.54 µM (active)
- AC50 [15]: 41.2 µM (active)
- CC50 [16]: 18.2 µM (active)
- AC50 [17]: > 70 µM (inactive)

SMILES: COc1ccc(Cl)cc1NC(=O)CN(C1CCCCC1)S(C)(=O)=O
- AC50 [7]: 3.13 µM (active)
- AC50 [10]: 4.33 µM (active)
- AC50 [8]: 5.49 µM (active)
- AC50 [9]: 2.69 µM (active)

SMILES: CCN1C[C@@H]2[C@@H]3C(=O)N(Cc4ccccc4)C(=O)[C@@H]3[C@](CC)(C1=O)N2C(=O)c1ccc(C(C)(C)C)cc1
- AC50 [7]: 5.77 µM (active)
- AC50 [10]: 15.4 µM (active)
- AC50 [8]: 20.2 µM (active)
- AC50 [9]: 4.4 µM (active)
